Measurements taken from patent US20070020744A1, “Enzyme compositions that enhance the flavor of food and beverages” (Amano Enzyme USA Co., Ltd, priority 2005, published 2007).

Legend:
[1] = tested on: β-glycosidase; test: Relative activity on nitrophenyl-sugar substrates: β-glycosidase; format: biochemical, Penicillium multicolor; settings: 100 units arbitrarily chosen for the substrate on which β-glycosidase exhibited the most activity
Description: (§1) The relative activity of Protease M and β-glycosidase on different sugar substrates was assessed. A panel of substrates comprising a nitrophenyl group conjugated to different sugars was used in the study.

[2] = tested on: Protease M; test: Relative activity on nitrophenyl-sugar substrates: Protease M; format: biochemical, Aspergillus oryzae; settings: 100 units arbitrarily chosen for the substrate on which Protease M exhibited the most activity
Description: as §1

O=[N+]([O-])c1ccc(O[C@H]2O[C@H](CO)[C@H](O)[C@H](O)[C@H]2O)cc1 [4-Nitrophenyl α-D-galactopyranoside]
relative activity of β-glycosidase for the substrate [1]: 100 activity units
relative activity of Protease M for the substrate [2]: 6 activity units

O=[N+]([O-])c1ccc(O[C@H]2O[C@H](CO)[C@@H](O)[C@H](O)[C@H]2O)cc1 [4-Nitrophenyl α-D-glucopyranoside]
relative activity of β-glycosidase for the substrate [1]: 19 activity units
relative activity of Protease M for the substrate [2]: 42 activity units

O=[N+]([O-])c1ccc(O[C@H]2O[C@H](CO)[C@@H](O)[C@H](O)[C@@H]2O)cc1 [4-Nitrophenyl α-D-mannopyranoside]
relative activity of β-glycosidase for the substrate [1]: 19 activity units
relative activity of Protease M for the substrate [2]: 4 activity units

O=[N+]([O-])c1ccc(O[C@@H]2OC[C@H](O)[C@H](O)[C@H]2O)cc1 [4-Nitrophenyl α-L-arabinopyranoside]
relative activity of β-glycosidase for the substrate [1]: 60 activity units
relative activity of Protease M for the substrate [2]: 29 activity units

O=[N+]([O-])c1ccc(O[C@@H]2O[C@H](CO)[C@@H](O[C@@H]3O[C@H](CO)[C@@H](O)[C@H](O)[C@H]3O)[C@H](O)[C@H]2O)cc1 [4-Nitrophenyl β-D-cellobioside]
relative activity of β-glycosidase for the substrate [1]: 55 activity units
relative activity of Protease M for the substrate [2]: 68 activity units

O=[N+]([O-])c1ccc(O[C@@H]2O[C@H](CO)[C@H](O)[C@H](O)[C@H]2O)cc1 [4-Nitrophenyl β-D-galactopyranoside]
relative activity of β-glycosidase for the substrate [1]: 85 activity units
relative activity of Protease M for the substrate [2]: 100 activity units

O=C(O)[C@H]1O[C@@H](Oc2ccc([N+](=O)[O-])cc2)[C@H](O)[C@@H](O)[C@@H]1O [4-Nitrophenyl β-D-glucuronide]
relative activity of β-glycosidase for the substrate [1]: 12 activity units
relative activity of Protease M for the substrate [2]: 4 activity units

O=[N+]([O-])c1ccc(O[C@@H]2O[C@H](CO)[C@@H](O[C@H]3O[C@H](CO)[C@@H](O)[C@H](O)[C@H]3O)[C@H](O)[C@H]2O)cc1 [4-Nitrophenyl β-D-maltoside]
relative activity of β-glycosidase for the substrate [1]: 57 activity units
relative activity of Protease M for the substrate [2]: 63 activity units

O=[N+]([O-])c1ccc(O[C@@H]2O[C@H](CO)[C@@H](O)[C@H](O)[C@@H]2O)cc1 [4-Nitrophenyl β-D-mannopyranoside]
relative activity of β-glycosidase for the substrate [1]: 12 activity units
relative activity of Protease M for the substrate [2]: 10 activity units
